Test results as given in PubChem BioAssay AID2086 (NMMLSC, 2009).
Active and inactive are the calls of the source. How the calls were made is not given here.

molecular target: Induced myeloid leukemia cell differentiation protein Mcl-1 (Homo sapiens) (UniProt Q07820); experiment: Mcl-1/Bim interaction regulators – biochemical, bead-based flow cytometry, multiplex, HTS hits, confirmation (AID 2086); details: Bim-Mcl-1 interaction
Sequence (Q07820 whole entry, looked up): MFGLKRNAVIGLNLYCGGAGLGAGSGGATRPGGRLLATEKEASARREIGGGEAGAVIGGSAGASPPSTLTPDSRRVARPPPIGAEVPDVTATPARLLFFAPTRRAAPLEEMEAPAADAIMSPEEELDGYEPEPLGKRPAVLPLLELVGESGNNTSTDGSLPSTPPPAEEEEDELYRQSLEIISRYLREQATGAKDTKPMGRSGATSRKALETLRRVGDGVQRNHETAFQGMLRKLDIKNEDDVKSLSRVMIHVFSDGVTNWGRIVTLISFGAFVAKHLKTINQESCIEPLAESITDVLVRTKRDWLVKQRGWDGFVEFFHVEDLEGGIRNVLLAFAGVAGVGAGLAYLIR

Row | SMILES | EC50
1 | COc1ccc(N2C(=O)C(Cl)=C(NC3C(=O)N(c4ccccc4)N(C)C3C)C2=O)cc1 (stereo unspecified) | inactive

same assay, conditions: Bim-Mcl-1 interaction, at 100 µM (top of the series)

Row | SMILES | response, inhibition or activation
2 | O=C1c2ccccc2C(=O)N1CN(C(=O)COc1ccc(Cl)cc1Cl)c1cccc(F)c1 | inactive
3 | CC(=O)OCCCNc1cc(Sc2nc3ccccc3s2)c2nonc2c1[N+](=O)[O-] | inactive
4 | O=C1/C(=C\c2ccco2)NC(=S)N1c1ccccc1 | inactive
5 | S=c1[nH]cc(-c2ccccc2)n1-c1ccccc1 | inactive
6 | COc1cc(CNc2ccc3[nH]c(=O)[nH]c3c2)cc(Br)c1OCC(=O)NC(C)(C)C | inactive
7 | Cc1cc(-c2cc(-c3ccc(Cl)cc3)nc(N)c2C#N)co1 | inactive
8 | Clc1nc(NCc2cccnc2)nc(N2CCOCC2)n1 | inactive
9 | Cc1ccc(-c2cc(C(=O)Nc3nccs3)c3ccccc3n2)o1 | inactive
10 | CCN(CC)c1ccc(NC(=O)c2ccccc2Br)cc1S(=O)(=O)Nc1ccccc1OC | inactive
11 | O=[N+]([O-])c1c(NCCCO)cc(Sc2nc3ccccc3s2)c2nonc12 | inactive
12 | Cc1ccc(-c2cc(-c3ccc(F)cc3)c(C#N)c(N)n2)o1 | inactive
13 | O=C(Nc1nnc(COc2ccc(Cl)cc2)s1)c1ccco1 | inactive
14 | Cc1ccc(-c2cc(-c3ccc(C)o3)nc(N)c2C#N)cc1 | inactive
15 | CCOc1ccccc1CNc1ccc(O)cc1 | inactive
16 | COc1ccccc1NC1=C(NC(C)=O)C(=O)c2ccccc2C1=O | inactive
17 | O=c1c2c(n3nnnc3n1Cc1ccccc1)-c1ccccc1CC21CCCC1 | inactive
18 | O=C1NC(=O)C(=Cc2ccc(-c3cc(Cl)ccc3[N+](=O)[O-])o2)C(=O)N1 | inactive
19 | CCN(CC)c1ccc(NC(=O)COc2ccccc2C)cc1S(=O)(=O)Nc1ccccc1OC | inactive
20 | O=C1C(Cl)=C(N2CCN(c3ccccc3[N+](=O)[O-])CC2)C(=O)c2ccccc21 | inactive
21 | CNC(CC(=O)c1ccc([N+](=O)[O-])cc1)C(Cl)(Cl)Cl (stereo unspecified) | inactive
22 | CC(=O)Nc1ccc(-n2cc(-c3ccccc3)[nH]c2=S)cc1 | inactive
23 | CN(CCO)c1cc(Sc2nc3ccccc3s2)c2nonc2c1[N+](=O)[O-] | inactive
24 | Cc1nnc(Sc2cc(NCCO)c([N+](=O)[O-])c3nonc23)s1 | inactive
25 | CCN1C(=O)/C(=C\C=C2/C=CC=CN2CC)SC1=S | inactive
26 | O=C(/C=C/c1ccc(-c2ccccc2[N+](=O)[O-])o1)c1ccccc1 | inactive
27 | Oc1ccc(NCc2ccccc2OCc2ccccc2)cc1 | inactive
28 | C=CS(=O)(=O)c1sc(Cl)c(N2CCOCC2)c1[N+](=O)[O-] | inactive
29 | CCN(CC)c1ccc(NC(=O)c2ccccc2F)cc1S(=O)(=O)Nc1ccccc1OC | inactive
30 | COc1ccccc1-n1c(-c2ccccc2)c[nH]c1=S | inactive
31 | CCN(CC)C(=O)COC(=O)c1cc(-c2ccco2)nc2ccccc12 | inactive
